According to PubChem BioAssay AID2060505 (Molecular Pharmacology Branch, DTP, NCI, 2025):

System: 633275-114-R-J1-PDC complex spheroids, viability
Experiment: Anticancer human tumor 633275-114-R-J1-PDC patient-derived endometrial adenocarcinoma cell line growth inhibition [GQUAD]
Conditions: for IC50: curve of first compound; for viability, T/C: stronger effect = lower value
Method in brief: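 Viability of tumor cells grown as complex spheroids with endothelial and stromal cells, exposed to drug combinations. Top concentration at or near clinical Cmax (else 10 microM), diluted in half-log increments.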

[1] = second compound 0.0316 µM, first compound 0.0316 µM
[2] = second compound 0.0316 µM, first compound 0.1 µM
[3] = second compound 0.0316 µM, first compound 0.316 µM
[4] = second compound 0.0316 µM, first compound 1 µM
[5] = second compound 0.0316 µM, first compound 3.16 µM
[6] = second compound 0.0316 µM, first compound 10 µM
[7] = second compound 0.1 µM, first compound 0.0316 µM
[8] = second compound 0.1 µM, first compound 0.1 µM
[9] = second compound 0.1 µM, first compound 0.316 µM
[10] = second compound 0.1 µM, first compound 1 µM
[11] = second compound 0.1 µM, first compound 3.16 µM
[12] = second compound 0.1 µM, first compound 10 µM
[13] = second compound 0.316 µM, first compound 0.0316 µM
[14] = second compound 0.316 µM, first compound 0.1 µM
[15] = second compound 0.316 µM, first compound 0.316 µM
[16] = second compound 0.316 µM, first compound 1 µM
[17] = second compound 0.316 µM, first compound 3.16 µM
[18] = second compound 0.316 µM, first compound 10 µM
[19] = second compound 1 µM, first compound 0.0316 µM
[20] = second compound 1 µM, first compound 0.1 µM
[21] = second compound 1 µM, first compound 0.316 µM
[22] = second compound 1 µM, first compound 1 µM
[23] = second compound 1 µM, first compound 3.16 µM
[24] = second compound 1 µM, first compound 10 µM
[25] = second compound 3.16 µM, first compound 0.0316 µM
[26] = second compound 3.16 µM, first compound 0.1 µM
[27] = second compound 3.16 µM, first compound 0.316 µM
[28] = second compound 3.16 µM, first compound 1 µM
[29] = second compound 3.16 µM, first compound 3.16 µM
[30] = second compound 3.16 µM, first compound 10 µM
[31] = second compound 10 µM, first compound 0.0316 µM
[32] = second compound 10 µM, first compound 0.1 µM
[33] = second compound 10 µM, first compound 0.316 µM
[34] = second compound 10 µM, first compound 1 µM
[35] = second compound 10 µM, first compound 3.16 µM
[36] = second compound 10 µM, first compound 10 µM
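Note: spheroids exposed to the agents for seven days.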
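Throughout, for viability, T/C: percent of DMSO vehicle control viability which is 100%.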

Compound: CC1COCCN1c1cc(C2(S(C)(=N)=O)CC2)nc(-c2ccnc3[nH]ccc23)n1 (stereo unspecified) + Cc1cnc(CNC(=O)c2c(=O)c3ccc(N4CCCN(C)CC4)nc3n3c2sc2ccccc23)cn1
- IC50 (second compound 0.0316 µM): 1600 nM
- IC50 (second compound 0.1 µM): < 31.6 nM
- IC50 (second compound 0.316 µM): < 31.6 nM
- IC50 (second compound 1 µM): < 31.6 nM
- IC50 (second compound 3.16 µM): < 31.6 nM
- IC50 (second compound 10 µM): < 31.6 nM
- viability, T/C [1]: 67.5%
- viability, T/C [2]: 64.5%
- viability, T/C [3]: 59.1%
- viability, T/C [4]: 49.6%
- viability, T/C [5]: 50.2%
- viability, T/C [6]: 29.7%
- viability, T/C [7]: 51.9%
- viability, T/C [8]: 47.3%
- viability, T/C [9]: 49.1%
- viability, T/C [10]: 41.5%
- viability, T/C [11]: 44.7%
- viability, T/C [12]: 27.4%
- viability, T/C [13]: 47.5%
- viability, T/C [14]: 46%
- viability, T/C [15]: 43.4%
- viability, T/C [16]: 41.1%
- viability, T/C [17]: 35.7%
- viability, T/C [18]: 24.4%
- viability, T/C [19]: 37.8%
- viability, T/C [20]: 40.3%
- viability, T/C [21]: 35.7%
- viability, T/C [22]: 37.8%
- viability, T/C [23]: 39%
- viability, T/C [24]: 27%
- viability, T/C [25]: 33.5%
- viability, T/C [26]: 34%
- viability, T/C [27]: 32.2%
- viability, T/C [28]: 30.6%
- viability, T/C [29]: 31.1%
- viability, T/C [30]: 22.7%
- viability, T/C [31]: 33.8%
- viability, T/C [32]: 28.8%
- viability, T/C [33]: 31.5%
- viability, T/C [34]: 29.1%
- viability, T/C [35]: 33.6%
- viability, T/C [36]: 23.9%

Compound: Cc1cccc(N(C)C(=O)C2C(O)CCN2c2nc(C)cc(C(F)(F)F)c2C#N)c1 (stereo unspecified) + Cc1cnc(CNC(=O)c2c(=O)c3ccc(N4CCCN(C)CC4)nc3n3c2sc2ccccc23)cn1
- IC50 (second compound 0.0316 µM): > 10000 nM
- IC50 (second compound 0.1 µM): 814 nM
- IC50 (second compound 0.316 µM): < 31.6 nM
- IC50 (second compound 1 µM): < 31.6 nM
- IC50 (second compound 3.16 µM): < 31.6 nM
- IC50 (second compound 10 µM): < 31.6 nM
- viability, T/C [1]: 66.2%
- viability, T/C [2]: 64.1%
- viability, T/C [3]: 59.2%
- viability, T/C [4]: 65%
- viability, T/C [5]: 60.5%
- viability, T/C [6]: 67.8%
- viability, T/C [7]: 55.1%
- viability, T/C [8]: 52%
- viability, T/C [9]: 53.7%
- viability, T/C [10]: 48.3%
- viability, T/C [11]: 47.5%
- viability, T/C [12]: 46.8%
- viability, T/C [13]: 40%
- viability, T/C [14]: 41.5%
- viability, T/C [15]: 46%
- viability, T/C [16]: 50.9%
- viability, T/C [17]: 43.4%
- viability, T/C [18]: 44.5%
- viability, T/C [19]: 41.2%
- viability, T/C [20]: 42.1%
- viability, T/C [21]: 41.4%
- viability, T/C [22]: 39.9%
- viability, T/C [23]: 37.3%
- viability, T/C [24]: 37.7%
- viability, T/C [25]: 36.3%
- viability, T/C [26]: 35%
- viability, T/C [27]: 32.1%
- viability, T/C [28]: 33.5%
- viability, T/C [29]: 37.2%
- viability, T/C [30]: 35%
- viability, T/C [31]: 27.2%
- viability, T/C [32]: 33.9%
- viability, T/C [33]: 27.9%
- viability, T/C [34]: 31.4%
- viability, T/C [35]: 34.2%
- viability, T/C [36]: 24.2%

Compound: Cn1ncnc1[C@H]1c2n[nH]c(=O)c3cc(F)cc(c23)N[C@@H]1c1ccc(F)cc1 + Cc1cnc(CNC(=O)c2c(=O)c3ccc(N4CCCN(C)CC4)nc3n3c2sc2ccccc23)cn1
- IC50 (second compound 0.0316 µM): 114 nM
- IC50 (second compound 0.1 µM): < 0.999 nM
- IC50 (second compound 0.316 µM): < 0.999 nM
- IC50 (second compound 1 µM): < 0.999 nM
- IC50 (second compound 3.16 µM): < 0.999 nM
- IC50 (second compound 10 µM): < 0.999 nM
- viability, T/C (second compound 0.0316 µM, first compound 0.000999 µM): 64%
- viability, T/C (second compound 0.0316 µM, first compound 0.00316 µM): 63.3%
- viability, T/C (second compound 0.0316 µM, first compound 0.00999 µM): 63.2%
- viability, T/C [1]: 58.9%
- viability, T/C (second compound 0.0316 µM, first compound 0.0999 µM): 46.5%
- viability, T/C [3]: 44.3%
- viability, T/C (second compound 0.1 µM, first compound 0.000999 µM): 47.9%
- viability, T/C (second compound 0.1 µM, first compound 0.00316 µM): 51.3%
- viability, T/C (second compound 0.1 µM, first compound 0.00999 µM): 50.2%
- viability, T/C [7]: 42.2%
- viability, T/C (second compound 0.1 µM, first compound 0.0999 µM): 39.3%
- viability, T/C [9]: 38.2%
- viability, T/C (second compound 0.316 µM, first compound 0.000999 µM): 41.9%
- viability, T/C (second compound 0.316 µM, first compound 0.00316 µM): 43.7%
- viability, T/C (second compound 0.316 µM, first compound 0.00999 µM): 43.2%
- viability, T/C [13]: 37.7%
- viability, T/C (second compound 0.316 µM, first compound 0.0999 µM): 37.6%
- viability, T/C [15]: 34.8%
- viability, T/C (second compound 1 µM, first compound 0.000999 µM): 39.1%
- viability, T/C (second compound 1 µM, first compound 0.00316 µM): 37.4%
- viability, T/C (second compound 1 µM, first compound 0.00999 µM): 37.9%
- viability, T/C [19]: 35%
- viability, T/C (second compound 1 µM, first compound 0.0999 µM): 34%
- viability, T/C [21]: 34%
- viability, T/C (second compound 3.16 µM, first compound 0.000999 µM): 31.8%
- viability, T/C (second compound 3.16 µM, first compound 0.00316 µM): 38.6%
- viability, T/C (second compound 3.16 µM, first compound 0.00999 µM): 36.6%
- viability, T/C [25]: 36.7%
- viability, T/C (second compound 3.16 µM, first compound 0.0999 µM): 29.4%
- viability, T/C [27]: 29.8%
- viability, T/C (second compound 10 µM, first compound 0.000999 µM): 32.8%
- viability, T/C (second compound 10 µM, first compound 0.00316 µM): 31%
- viability, T/C (second compound 10 µM, first compound 0.00999 µM): 28.4%
- viability, T/C [31]: 30.9%
- viability, T/C (second compound 10 µM, first compound 0.0999 µM): 28.9%
- viability, T/C [33]: 26.6%
